Reference: patent US20160102074A1, “SUBSTITUTED AMIDE COMPOUNDS” (PFIZER INC., priority 2014, published 2016)

Tests used:
[1] = Human hepatocyte in vitro liver metabolism assay (HHep); format: in vitro ADME; settings: cryopreserved human hepatocytes, 0.5 million viable cells per mL, 37° C.
Source text: In particular, the human intestinal S9 fraction in vitro stability assay (HInt) and human hepatocyte in vitro liver metabolism assay (HHep) provide important information regarding the clearance and metabolic activation of these compounds. The human intestinal S9 fraction in vitro stability assay provides a surrogate measure of compound metabolism as it travels across the gut wall; compounds with low CLint values more likely to enter the portal vein and be exposed to the liver. Likewise, the human hepatocyte in vitro liver metabolism assay provides a surrogate measure of compound metabolism when exposed to liver; compounds with high CLint values are more likely to be metabolically activated. For compounds such as prodrugs that release an active species on metabolic activation, high CLint values in human hepatocytes are desirable. Active compounds released in this way inhibit PCSK9 and show improved atherosclerotic properties by increased exposure of the active metabolite in the liver.
Human Hepatocyte In Vitro Liver Metabolism Assay (HHep)
In order to determine the rate of metabolism leading to conversion of prodrug into active drug form, experiments utilizing human hepatocytes were performed. Hepatocytes are an ideal in vitro system to monitor hepatic metabolism since these intact cells contain all the hepatic enzymes found in vivo, including phase I enzymes (such as CYPs, aldehyde oxidases, esterases and MAOs) and phase II enzymes (such as UDP-glucuronyltransferases and sulfotransferases). The assay utilizes isolated hepatocytes from human donors incubated with the compound of interest in conditions mimicking physiological conditions where the metabolic stability of the compound is investigated. The experimental protocol is as follows. Vials of cryopreserved human hepatocytes (stored in liquid nitrogen until used for testing) were thawed in a water bath (37 to 40° C.) until nearly thawed, transferred to a conical tube, resuspended by inversion and subsequently centrifuged at 50-90 g at room temperature for 5 min. The supernatant was then discarded and the pellet loosened by gently tapping the end of the conical tube. William's E media was then added to achieve the desired final cell density (0.5 million viable cells per mL), and the hepatocytes were then resuspended in this fresh media. The viable cell count was then determined using the trypan blue exclusion method where a minimum viability of 70% was obtained. At this point, new molecular entities (NME's) were prepared for testing. In brief, the NME was diluted with DMSO such that final incubation concentration of NME was […] and final DMSO content was 0.1%. Assays were conducted in a 384-well format at 37° C. in an incubator held at 95% air to 5% CO2 at 95% relative humidity. The per-well incubation total incubation volume was 20 μL including hepatocytes and NME. The assay was performed using 7 hepatocyte plates where the plates were designated as sampling times 0, 15, 30, 60, 120 and 240 min and include hepatocytes and NME, and a no NME control plate with hepatocytes that was taken at 240 min. Two additional no hepatocyte containing control plates were prepared and subsequently sampled at 0 and 240 min, respectively, and were identical to the hepatocyte containing plates with respect to NME and media composition. The incubations were stopped using acetonitrile and prepared for analytical testing using liquid chromatography mass-spectrometry (LC/MS) detection. Each NME was optimized for LC/MS analytical conditions. A disappearance curve was generated from the sample time point analytical peak areas and compared to control plate results (control plates allow artifacts such as non-hepatocyte mediated decline (e.g., media/condition instability for the NME) to be determined). The slope of the disappearance curve was used to determine metabolic stability expressed CLint. […]

[2] = system: human PCSK9; test: In vivo plasma PCSK9 lowering in humanized PCSK9 mice; set-up: species or system mouse; settings: hPCSK9 mice, single oral dose 500 mg/kg, relative to hour zero (baseline) levels
Source text: A humanized PCSK9 mouse model was developed to assess compound activity in vivo. This model was established by first generating a transgenic mouse containing the full-length human PCSK9 gene and its promoter through pronuclear injection of the bacterial artificial chromosome (BAC), RP11-627J9, into C57B16J mice. Mice containing the human PCSK9 transgene were then bred with PCSK9 knockout mice on a 129/C57BL6J background (Rashid S, Curtis D E, Garuti R, et al. Decreased plasma cholesterol and hypersensitivity to statins in mice lacking Pcsk9. Proc Natl Acad Sci USA 2005; 102(15):5374-9). […] For example, ethyl (S)-1-{5-[4-(4-{(3-chloropyridin-2-yl)[(3R)-piperidin-3-yl]carbamoyl}-2-fluorophenyl)-1-methyl-1H-pyrazol-5-yl]-1H-tetrazol-1-yl}ethyl carbonate (the parent molecule) was dosed orally and plasma and liver concentrations were measured for the metabolite, N-(3-chloropyridin-2-yl)-3-fluoro-4-[1-methyl-5-(2H-tetrazol-5-yl)-1H-pyrazol-4-yl]-N-[(3R)-piperidin-3-yl]benzamide. Quantitation of human plasma PCSK9 was performed using a commercially available sandwich ELISA kit (R&D Systems, DPC900) incorporating a horse radish peroxidase (HRP) conjugated secondary antibody (R&D Systems, DPC900) to generate a colorimetric signal proportional to PCSK9 concentration per the manufacturer's protocol. […]

Structure (SMILES)	HHep CLint [1]	Percent Plasma PCSK9 Lowering at 4 hours [2]
CCOC(=O)O[C@@H](C)n1nnnc1-c1c(-c2ccc(C(=O)N(c3ncccc3Cl)[C@@H]3CCCNC3)cc2F)cnn1C [Example 7, ethyl (S)-1-{5-[4-(4-{(3-chloropyridin-2-yl)[(3R)-piperidin-3-yl]carbamoyl}-2-fluorophenyl)-1-methyl-1H-pyrazol-5-yl]-1H-tetrazol-1-yl}ethyl carbonate]	97.6 μL/min/mil	72%
CCOC(=O)O[C@H](C)n1nnnc1-c1c(-c2ccc(C(=O)N(c3ncccc3Cl)[C@@H]3CCCNC3)cc2F)cnn1C [Example 11, ethyl (R)-1-{5-[4-(4-{(3-chloropyridin-2-yl)[(3R)-piperidin-3-yl]carbamoyl}-2-fluorophenyl)-1-methyl-1H-pyrazol-5-yl]-1H-tetrazol-1-yl}ethyl carbonate]	>170 μL/min/mil	
CCOC(=O)O[C@@H](C)n1nnnc1-c1c(-c2ccc(C(=O)N(c3ncccc3C)[C@@H]3CCCNC3)cc2)cnn1C [Example 5a, ethyl (S)-1-{5-[1-methyl-4-(4-{(3-methylpyridin-2-yl)[(3R)-piperidin-3-yl]carbamoyl}phenyl)-1H-pyrazol-5-yl]-1H-tetrazol-1-yl}ethyl carbonate]	57.2 μL/min/mil	
CCOC(=O)O[C@H](C)n1nnnc1-c1c(-c2ccc(C(=O)N(c3ncccc3C)[C@@H]3CCCNC3)cc2)cnn1C [Example 5b, ethyl (R)-1-{5-[1-methyl-4-(4-{(3-methylpyridin-2-yl)[(3R)-piperidin-3-yl]carbamoyl}phenyl)-1H-pyrazol-5-yl]-1H-tetrazol-1-yl}ethyl carbonate]	85.0 μL/min/mil	
CCOC(=O)O[C@@H](C)n1nnnc1-c1c(-c2ccc(C(=O)N(c3ncccc3C)[C@@H]3CCCNC3)cc2F)cnn1C [Example 8, ethyl (S)-1-{5-[4-(4-{(3-methylpyridin-2-yl)[(3R)-piperidin-3-yl]carbamoyl}-2-fluorophenyl)-1-methyl-1H-pyrazol-5-yl]-1H-tetrazol-1-yl}ethyl carbonate]	51.3 μL/min/mil	
CCOC(=O)O[C@@H](C)n1nnnc1-c1c(-c2ccc(C(=O)N(c3ncccc3C)[C@@H]3CCCNC3)nc2)cnn1C [Example 9, ethyl (S)-1-{5-[1-methyl-4-(6-{(3-methylpyridin-2-yl)[(3R)-piperidin-3-yl]carbamoyl}pyridin-3-yl)-1H-pyrazol-5-yl]-1H-tetrazol-1-yl}ethyl carbonate]	7.0 μL/min/mil	
CCOC(=O)O[C@@H](C)n1nnnc1-c1c(-c2ccc(C(=O)N(c3ncccc3Cl)[C@@H]3CCCNC3)cc2)cnn1C [Example 6, ethyl (S)-1-{5-[1-methyl-4-(4-{(3-chloropyridin-2-yl)[(3R)-piperidin-3-yl]carbamoyl}phenyl)-1H-pyrazol-5-yl]-1H-tetrazol-1-yl}ethyl carbonate]	71.2 μL/min/mil	71%
CCOC(=O)O[C@@H](C)n1nnnc1-c1c(-c2ccc(C(=O)N(c3ncccc3Cl)[C@@H]3CCCNC3)nc2)cnn1C [Example 10, ethyl (S)-1-{5-[4-(6-{(3-chloropyridin-2-yl)[(3R)-piperidin-3-yl]carbamoyl}pyridin-3-yl)-1-methyl-1H-pyrazol-5-yl]-1H-tetrazol-1-yl}ethyl carbonate]	11.8 μL/min/mil	
